Where two headings read alike, the source gives them in different places.
Key:
[1] = biological target: T1, AChE from electric eel (EeAChE) (Electrophorus electricus, UniProt O42275); experiment: AChE activity assay (modified Ellman's method); format: biochemical; conditions: for IC50: mean ± SEM, n = 3
T1 construct: AChE from electric eel (C3389-500UN; Sigma); purchased Sigma C3389-500UN
Protocol: (§1) Enzymatic activity assays were performed on AChE from electric eel (C3389-500UN; Sigma) and BuChE from equine serum (C4290-1KU; Sigma), according to Ellman’s method with light modification. The experiment was performed in 48-well plates in a final volume of 500 µl. Each well contained 0.036 U/ml of EeAChE or eqBuChE, and 0.1 M pH = 8 phosphate buffer. They were incubated for 20 min at different concentrations of test compound at 37 °C. […] The DTNB produced the yellow anion 5-thio-2-nitrobenzoic acid along with the enzymatic degradation of acetylthiocholine or butyrylthiocholine. The absorbance of each assay was measured at 410 nm after 20 min in a Biotek Synergy HTX Multi-Mode reader. The IC50 values were calculated graphically from inhibition curves (log inhibitor concentration vs percent of inhibition). A control experiment was performed under the same conditions without inhibitor and the blank contained buffer, DMSO, DTNB and substrate.

[2] = biological target: T2, BuChE from equine serum (eqBuChE) (Equus caballus, UniProt P81908); experiment: BuChE activity assay (modified Ellman's method); format: biochemical, equine (horse); conditions: for inhibition % at 20 µM BuChE / inhibition at 20 µM: 20 µM compound; for IC50: mean ± SEM, n = 3
T2 construct: BuChE from equine serum (C4290-1KU; Sigma); purchased Sigma C4290-1KU; host or cells: equine serum
T2 sequence (P81908 whole entry): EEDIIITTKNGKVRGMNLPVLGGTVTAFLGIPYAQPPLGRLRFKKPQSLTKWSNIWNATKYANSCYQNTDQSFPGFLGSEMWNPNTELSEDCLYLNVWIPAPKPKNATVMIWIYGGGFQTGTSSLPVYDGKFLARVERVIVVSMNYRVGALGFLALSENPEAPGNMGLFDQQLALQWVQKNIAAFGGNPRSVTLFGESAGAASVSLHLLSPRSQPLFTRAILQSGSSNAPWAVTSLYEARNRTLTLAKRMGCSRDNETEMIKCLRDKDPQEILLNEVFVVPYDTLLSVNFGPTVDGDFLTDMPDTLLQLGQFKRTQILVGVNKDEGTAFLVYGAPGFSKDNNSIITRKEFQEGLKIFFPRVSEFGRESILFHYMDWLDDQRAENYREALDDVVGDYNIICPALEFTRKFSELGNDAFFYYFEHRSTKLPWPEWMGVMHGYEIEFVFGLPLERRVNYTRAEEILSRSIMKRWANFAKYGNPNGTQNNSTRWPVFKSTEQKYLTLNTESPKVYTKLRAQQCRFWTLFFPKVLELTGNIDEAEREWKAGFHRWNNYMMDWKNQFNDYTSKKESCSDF
Protocol: as §1

[3] = Log P assessment (shake flask method, octanol/PBS); format: physicochemical; conditions: octanol/PBS pH 7.4, shake flask, 37 °C
Protocol: Log P, defined as the logarithm of octanol–water partition coefficient, is an important parameter to evaluate lipophilicity of compounds[45]. It can be calculated by determining the concentration of compound in octanol phase and water phase until the partition equilibrium was completed. In this work, log P of title compounds was measured by the shake flask method with slight modification. PBS (pH = 7.4) was used as the water. Both the octanol and the aqueous phase were saturated with each other before use. The assay mixture containing test compounds was shaken at 37 °C. After 24 h, the mixture was centrifuged at 4,000 rpm for 30 min, followed by the measurement with UV spectrophotometer. Experiments were conducted in triplicate and log p values were calculated.

eqBuChE = biological target: T3, eqBuChE (Equus caballus, UniProt P81908); experiment: Kinetic study of eqBuChE inhibition (Lineweaver-Burk plots); format: biochemical, equine (horse); conditions: for type of BuChE inhibition: Lineweaver-Burk plots; for Ki: Lineweaver-Burk secondary plots, inhibitor 5, 10 and 20 µM, read-out: dissociation constant Ki against BuChE
T3 construct: BuChE from equine serum (C4290-1KU; Sigma); purchased Sigma C4290-1KU; host or cells: equine serum
T3 sequence (P81908 whole entry): as above
Protocol: . The kinetic type of enzyme inhibition was obtained through the modified Ellman’s method and Lineweaver–Burk secondary plots. Apparent inhibition constants and kinetic parameters were calculated within the “Enzyme kinetics” module of Prism 5.
The kinetic studies were carried out at three fixed inhibitor concentrations (5, 10 and 20 µM).

[4] = Cytotoxicity MTT assay in PC12 cells; format: cell-based; conditions: rat, 1-50 µM, read-out: relative cell viability (cytotoxicity)
Protocol: PC12 cells were used to evaluate cell cytotoxicity by methyl thiazolyl tetrazolium (MTT) assay. PC12 cells were cultured in DMEM containing 10% fetal bovine serum, 100 µg/ml streptomycin and 100 units/ml penicillin at 37 °C in a 5% CO2 humidified atmosphere, and inoculated at 1 × 10^4 cells per well in 96-well plate. After cultured for 24 h, the cells were treated with different concentration of compounds in DMEM for 24 h. Then 20 µl of 0.5 mg/ml MTT reagent was added into the cells and incubated for 4 h. After 4 h, cell culture was removed and then 150 µl DMSO was added to dissolve the formazan. The optical density was measured at 570 nm (OD570). Cell viability was calculated from three independent experiments. OD570 of formazan in blank group was set as 100% of viability.
Blank: cultured with fresh medium only.

[5] = test system: differentiated PC12 cells; experiment: Neuroprotective effect against H2O2-induced damage in differentiated PC12 cells; format: cell-based; conditions: Rattus norvegicus, PC-12, 25 µM compound 3 h before H2O2 (300 µM), 24 h, MTT, p < .05 vs. H2O2 alone, read-out: cell viability (neuroprotective activity)
Protocol: The differentiated PC12 cells and oxidative agent H2O2 were used as in vitro model to assess neuronal differentiation and neurobiochemical and neurobiological properties[39]^,[44]. Differentiated PC12 cells were incubated with different concentrations of compounds 6a and 6g for 3 h before treatment with H2O2 (300 µM). Cell viability was measured after 24 h using MTT method. Briefly, 20 µL of 0.5 mg/ml MTT reagent was added into the cells and incubated for 4 h. After 4 h, cell culture was removed and then 150 µl DMSO was added to dissolve the formazan. OD570 value was measured at 570 nm on the Biotek Synergy HTX Multi-Mode reader. Results were adjusted by OD570 value in the blank.
. The differentiated PC12 cells were pretreated with three concentrations (10, 25 and 50 µM) for 3 h, before treatment with H2O2 (300 µM), and cell viability was measured after 24 h using MTT method. […]. Neuroprotective activity of compounds 6a and 6g […] was evaluated by subjecting PC12 cells to H2O2-induced damage. […]

[6] = AChE from electric eel, 20 µM compound, read-out: inhibition % at 20 µM AChE
[7] = BuChE from horse serum, read-out: inhibition % at 20 µM BuChE
[8] = AChE from electric eel, 20 µM compound
[9] = AChE from electric eel, 20 µM compound, read-out: inhibition at 20 µM AChE
[10] = BuChE from horse serum, read-out: inhibition at 20 µM BuChE

T1 sequence (O42275 24-633): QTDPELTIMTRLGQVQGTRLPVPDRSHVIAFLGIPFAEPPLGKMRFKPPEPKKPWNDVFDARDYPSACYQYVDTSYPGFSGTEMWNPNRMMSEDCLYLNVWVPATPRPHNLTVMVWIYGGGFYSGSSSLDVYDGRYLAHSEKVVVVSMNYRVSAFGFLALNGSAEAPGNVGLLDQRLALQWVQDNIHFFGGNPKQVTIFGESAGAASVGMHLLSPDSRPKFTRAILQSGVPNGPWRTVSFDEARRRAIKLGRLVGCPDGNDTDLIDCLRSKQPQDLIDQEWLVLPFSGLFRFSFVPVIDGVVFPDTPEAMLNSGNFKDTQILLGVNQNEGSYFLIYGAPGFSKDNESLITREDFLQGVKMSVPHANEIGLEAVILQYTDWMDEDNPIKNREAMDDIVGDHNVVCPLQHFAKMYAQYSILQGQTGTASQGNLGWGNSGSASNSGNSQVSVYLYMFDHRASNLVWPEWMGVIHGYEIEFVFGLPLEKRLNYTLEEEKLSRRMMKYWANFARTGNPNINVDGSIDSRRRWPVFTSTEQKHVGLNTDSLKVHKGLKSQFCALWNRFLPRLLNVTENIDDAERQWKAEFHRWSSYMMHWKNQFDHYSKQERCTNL

COc1cccc2c1OC(=O)N1N=C(C)CC21 (centres unmarked) [Compound 6k, 2-Methyl-7-methoxy-1,10b-dihydro-5H-pyrazolo[1,5-c][1,3]benzoxazin-5-one]
inhibition at 20 µM [1, 6]: 35 ± 3% | inhibition % at 20 µM BuChE ([2]; BuChE from horse serum): 14 ± 3% | inhibition at 20 µM [2, 7]: < 20%

Cc1ccc(C2=NN3C(=O)Oc4ccc(Cl)cc4C3C2)cc1 (centres unmarked) [Compound 3e, 9-Chloro-2-(4-methyl)phenyl-1,10b-dihydro-5H-pyrazolo[1,5-c][1,3]benzoxazin-5-one]
inhibition % at 20 µM AChE [1, 8]: 32 ± 2% | inhibition % at 20 µM BuChE ([2]; BuChE from horse serum): 32 ± 5%

CC1=NN2C(=O)Oc3ccc(Cl)cc3C2C1 (centres unmarked) [Compound 6e, 9-Chloro-2-methyl-1,10b-dihydro-5H-pyrazolo[1,5-c][1,3]benzoxazin-5-one]
inhibition at 20 µM [1, 6]: 16 ± 1% | IC50 ([2]; BuChE from horse serum): 6.29 ± 0.65 µM

S=C1Oc2ccccc2C2CC(c3ccccc3)=NN12 (centres unmarked) [Compound 3b, 2-Phenyl-1,10b-dihydro-5H-pyrazolo[1,5-c][1,3]benzoxazin-5-thione]
inhibition at 20 µM [1, 9]: < 0% | inhibition at 20 µM [2, 7]: 9 ± 3%

CC1=NN2C(=O)Oc3c(Cl)cc(Cl)cc3C2C1 (centres unmarked) [Compound 6a, 7,9-Dichloro-2-methyl-1,10b-dihydro-5H-pyrazolo[1,5-c][1,3]benzoxazin-5-one]
inhibition at 20 µM [1, 6]: 39 ± 3% | logP at 24 h [3]: 1.5 | type of BuChE inhibition (eqBuChE): mixed-type inhibition | Ki (eqBuChE): 7.46 µM | IC50 ([2]; BuChE from horse serum): 1.06 ± 0.11 µM | viability at 24 h [4]: > 90% | viability at 25 µM [5]: > 70%

CC1=NN2C(=S)Oc3ccc(C)cc3C2C1 (centres unmarked) [Compound 6n, 2,9-Dimethyl-1,10b-dihydro-5H-pyrazolo[1,5-c][1,3]benzoxazin-5-thione]
inhibition at 20 µM [1, 6]: 15 ± 2% | inhibition at 20 µM [2, 10]: < 0%

CC1=NN2C(=O)Oc3ccc(Br)cc3C2C1 (centres unmarked) [Compound 6g, 9-Bromo-2-methyl-1,10b-dihydro-5H-pyrazolo[1,5-c][1,3]benzoxazin-5-one]
inhibition at 20 µM [1, 6]: 26 ± 1% | logP at 24 h [3]: 1.63 | type of BuChE inhibition (eqBuChE): mixed-type inhibition | Ki (eqBuChE): 3.09 µM | IC50 ([2]; BuChE from horse serum): 1.63 ± 0.34 µM | viability at 24 h [4]: > 90% | viability at 25 µM [5]: > 70%

CC1=NN2C(=S)Oc3ccc(Br)cc3C2C1 (centres unmarked) [Compound 6h, 9-Bromo-2-methyl-1,10b-dihydro-5H-pyrazolo[1,5-c][1,3]benzoxazin-5-thione]
inhibition at 20 µM [1, 6]: 27 ± 2% | inhibition at 20 µM [2, 10]: < 0%

CC1=NN2C(=S)Oc3c(Br)cc(Cl)cc3C2C1 (centres unmarked) [Compound 6j, 7-Bromo-9-chloro-2-methyl-1,10b-dihydro-5H-pyrazolo[1,5-c][1,3]benzoxazin-5-thione]
inhibition at 20 µM [1, 6]: 14 ± 2% | inhibition at 20 µM [2, 10]: < 0%

O=C1Oc2ccccc2C2CC(c3ccc(F)cc3)=NN12 (centres unmarked) [Compound 3c, 2-(4-Fluoro)phenyl-1,10b-dihydro-5H-pyrazolo[1,5-c][1,3]benzoxazin-5-one]
inhibition % at 20 µM AChE [1, 8]: 15 ± 3% | inhibition % at 20 µM BuChE ([2]; BuChE from horse serum): 15 ± 2%

CC1=NN2C(=O)Oc3c(Br)cc(Br)cc3C2C1 (centres unmarked) [Compound 6c, 7,9-Dibromo-2-methyl-1,10b-dihydro-5H-pyrazolo[1,5-c][1,3]benzoxazin-5-one]
IC50 ([1]; AChE from electric eel): 10.7 ± 0.64 µM | logP at 24 h [3]: 1.48 | IC50 ([2]; BuChE from horse serum): 1.63 ± 0.42 µM

CC1=NN2C(=S)Oc3c(Cl)cc(Cl)cc3C2C1 (centres unmarked) [Compound 6b, 7,9-Dichloro-2-methyl-1,10b-dihydro-5H-pyrazolo[1,5-c][1,3]benzoxazin-5-thione]
inhibition at 20 µM [1, 6]: 25 ± 1% | inhibition at 20 µM [2, 10]: < 0%

CC1=NN2C(=S)Oc3c(Br)cc(Br)cc3C2C1 (centres unmarked) [Compound 6d, 7,9-Dibromo-2-methyl-1,10b-dihydro-5H-pyrazolo[1,5-c][1,3]benzoxazin-5-thione]
inhibition at 20 µM [1, 6]: 26 ± 3% | inhibition at 20 µM [2, 10]: < 0%

CC1=NN2C(=O)Oc3c(Br)cc(Cl)cc3C2C1 (centres unmarked) [Compound 6i, 7-Bromo-9-chloro-2-methyl-1,10b-dihydro-5H-pyrazolo[1,5-c][1,3]benzoxazin-5-one]
IC50 ([1]; AChE from electric eel): 13 ± 0.32 µM | IC50 ([2]; BuChE from horse serum): 2.44 ± 0.44 µM

CC1=NN2C(=O)Oc3ccc(C)cc3C2C1 (centres unmarked) [Compound 6m, 2,9-Dimethyl-1,10b-dihydro-5H-pyrazolo[1,5-c][1,3]benzoxazin-5-one]
inhibition at 20 µM [1, 9]: < 0% | inhibition % at 20 µM BuChE ([2]; BuChE from horse serum): 14 ± 1% | inhibition at 20 µM [2, 7]: < 20%

O=C1Oc2ccccc2C2CC(c3ccccc3)=NN12 (centres unmarked) [Compound 3a, 2-Phenyl-1,10b-dihydro-5H-pyrazolo[1,5-c][1,3]benzoxazin-5-one]
inhibition at 20 µM [1, 9]: < 0% | IC50 ([2]; BuChE from horse serum): 9.47 ± 0.23 µM

Cc1ccc(C2=NN3C(=O)Oc4ccccc4C3C2)cc1 (centres unmarked) [Compound 3f, 2–(4-Methyl)phenyl-1,10b-dihydro-5H-pyrazolo[1,5-c][1,3]benzoxazin-5-one]
inhibition % at 20 µM AChE [1, 8]: 48 ± 3% | inhibition % at 20 µM BuChE ([2]; BuChE from horse serum): 32 ± 2%

CC1=NN2C(=O)Oc3c(Br)cccc3C2C1 (centres unmarked) [Compound 6q, 7-Bromo-2-methyl-1,10b-dihydro-5H-pyrazolo[1,5-c][1,3]benzoxazin-5-one]
inhibition at 20 µM [1, 9]: < 0% | IC50 ([2]; BuChE from horse serum): 3.22 ± 1.06 µM

O=C1Oc2ccc(Cl)cc2C2CC(c3ccc(Cl)cc3)=NN12 (centres unmarked) [Compound 3d, 9-Chloro-2-(4-chloro)phenyl-1,10b-dihydro-5H-pyrazolo[1,5-c][1,3]benzoxazin-5-one]
inhibition % at 20 µM AChE [1, 8]: 39 ± 1% | inhibition % at 20 µM BuChE ([2]; BuChE from horse serum): 41 ± 6%

CC1=NN2C(=O)Oc3ccccc3C2C1 (centres unmarked) [Compound 6o, 2-Methyl-1,10b-dihydro-5H-pyrazolo[1,5-c][1,3]benzoxazin-5-one]
inhibition at 20 µM ([1]; read-out: inhibition at 20 µM AChE): < 0% | inhibition at 20 µM ([2]; read-out: inhibition % at 20 µM BuChE, BuChE from horse serum): 50.1 ± 4.3%

COc1cccc2c1OC(=S)N1N=C(C)CC21 (centres unmarked) [Compound 6l, 2-Methyl-7-methoxy-1,10b-dihydro-5H-pyrazolo[1,5-c][1,3]benzoxazin-5-thione]
inhibition at 20 µM [1, 6]: 30 ± 2% | inhibition at 20 µM [2, 7]: 2 ± 2%

CC1=NN2C(=S)Oc3ccccc3C2C1 (centres unmarked) [Compound 6p, 2-Methyl-1,10b-dihydro-5H-pyrazolo[1,5-c][1,3]benzoxazin-5-thione]
inhibition at 20 µM [1, 9]: < 0% | inhibition at 20 µM [2, 10]: < 0%

CC1=NN2C(=S)Oc3ccc(Cl)cc3C2C1 (centres unmarked) [Compound 6f, 9-Chloro-2-methyl-1,10b-dihydro-5H-pyrazolo[1,5-c][1,3]benzoxazin-5-thione]
inhibition at 20 µM [1, 6]: 18 ± 2% | inhibition at 20 µM [2, 10]: < 0%
